Data as given in ChEMBL document CHEMBL3507680, “University of Dundee, Gates Library screen for HepG2 cell viability”.

Assay: Human HepG2 cell viability assay in 384 well format
Type: toxicity, cell-based
Design: dose 125 nL, time 70.5 hour; concentration not given beside the values
Details: HepG2 cells, read-out: Inhibition

Row | Structure (SMILES) | cytotoxicity at 70.5 h [%]
1 | Cc1cccc(N2CCN(Cc3nc(CC4CC4)no3)CC2)n1 | 1.5
2 | CCN(CC)C1CCN(c2ncnc3c2CCN(C(=O)C2CC2)C3)C1 (centres undefined) | -2.79
3 | Cc1occc1C(=O)Nc1ccc(C(=O)NC[C@H]2CCCN2)cc1 | 7
4 | CCn1nc(CC(C)C)cc1C(=O)NCCCN1CCOCC1 | -0.263
5 | Cc1n[nH]c(SCC(=O)N[C@@H](C)C(N)=O)n1 | 0.227
6 | O=C(c1ccc(-c2nc[nH]n2)cc1)N1CC[C@H](CO)[C@@H](O)C1 | -10.8
7 | Cc1ccc(C(C(=O)NCCN2CCCCCC2)N(C)C)cc1 (centres undefined) | 5.23
8 | Cc1cccc(C2CCCN(C(=O)CN3CCCC3=O)C2)c1 (centres undefined) | -21.9
9 | Cc1cc(C)n(CCN(C)Cc2c[nH]nc2-c2ccc3c(c2)OCO3)n1 | -5.98
10 | CC(C)OC(=O)N1C[C@H]2CC[C@@H]1CN(Cc1cccnc1)C2 | -3.17
11 | CN1CCN(Cc2noc(CCc3nc(-c4ccccc4)no3)n2)CC1 | -6.63
12 | O=C(Nc1nc(-c2ccccc2)ns1)N1CCC(F)CC1 | -3.26
13 | NCc1n[nH]c(=O)n1-c1ccccc1Oc1ccccc1 | 9.56
14 | CC(C)(C)c1ncc2c(n1)CN(C(=O)c1ccc(C#N)nc1)C2 | 11.4
15 | O=C(CCc1n[nH]c2c1CCCC2)N1C[C@@H]2CC[C@H](C1)N(CC1CC1)C2 | -7.45
16 | Cc1cc2ccccc2n1CCC(=O)NCCN(C)S(C)(=O)=O | -13.9
17 | CN(C)C(C(=O)N1CCN(CCn2cccc2)CC1)c1cccc(F)c1 (centres undefined) | 2.13
18 | O=C(O)[C@@H]1CN(C(=O)CSCCN2CCCC2)C[C@H]1c1ccccc1 | 1.16
19 | COCC(=O)N1CCCN(Cc2cc(O)c3ccccc3n2)CC1 | -9.45
20 | O=C(c1ccc(-c2ccsc2)nc1)N1CCCN(C2CCCCC2)CC1 | 17
21 | COc1ccc2cc(C3CN(C(=O)CN4CCCC4)CCO3)ccc2c1 (centres undefined) | 2.28
22 | CN(Cc1cc(C2CC2)[nH]n1)C(=O)c1cnn2ccn(C)c12 | -10.4
23 | CC(C)(N)c1cn([C@@H]2c3ccccc3C3(CCNCC3)[C@H]2O)nn1 | -4.25
24 | Cc1nnnn1-c1ccc(CC(=O)N2CCOCC(O)C2)cc1 (centres undefined) | -6.4
25 | COC(=O)c1ccc(CNC2CC(=O)N(Cc3cccc(F)c3)C2)cc1 (centres undefined) | 0.023
26 | Cc1ccccc1SC1CCN(C(=O)[C@@H]2C[C@@H](N)CN2)CC1 | -2.11
27 | Cc1ccc(NCCCNC(=O)C2CC3(CCNCC3)CN2C)nc1 (centres undefined) | -10.5

Row | Structure (SMILES) | cytotoxicity at 70.5 h [%]
28 | CCc1nc(CN(C)C(=O)CSC)no1 | -11.3
29 | CCc1cc(N(C)CCCO)n2nccc2n1 | -4.76
30 | CSc1cccc(CN2CCC(CCC(=O)NCCN(C)C)CC2)c1 | -6.05
31 | CCN(Cc1ccccn1)Cc1cc(Cl)ccc1OC | 2.41
32 | CCN(C)S(=O)(=O)NCC1CCN(Cc2ccccc2F)C1 (centres undefined) | -10.5
33 | CCC1CN(C(=O)c2ccccc2N(C)C)CCN1C(C)C (centres undefined) | 1.87
34 | COCc1cn(C2CCN(C(=O)c3ccc(F)c(C)c3)CC2)nn1 | -6.36
35 | O=C(NCc1c(F)cccc1Cl)c1cc(CN2CCCC(O)C2)on1 (centres undefined) | -13.8
36 | O=c1cc(N2CCc3ccccc3C2)cnn1CCC1CCOC1 (centres undefined) | 1.4
37 | COCCN(C)CC(=O)N1C[C@@H](NC(C)=O)[C@H](c2ccc(OC)cc2)C1 | -17.6
38 | CCN(CC)C(=O)[C@@H]1C[C@H](N)CN1c1nnc(-c2ccccc2)s1 | 18.2
39 | Cc1nc(C(C)NC(=O)c2cn(Cc3ccc(Cl)cc3)nn2)n[nH]1 (centres undefined) | -1.77
40 | OCCC1CN(c2nc(-c3ccncc3)nc3c2CCNCC3)CCO1 (centres undefined) | 2.55
41 | CN1CCCC(CCC(=O)N2CCc3[nH]c(-c4ccccc4)nc3C2)C1 (centres undefined) | 20.8
42 | Cc1n[nH]c(C)c1CC(=O)N1CCN(C)C2(CCNC(=O)CC2)C1 (centres undefined) | -4.03
43 | O=C1[C@@H]2CN(c3ncnc4[nH]ccc34)C[C@]2(C(=O)O)CN1CC1CC1 | -9.8
44 | O=C(NCCn1cccc1)C1CCCN(C2CCCC2)C1 (centres undefined) | 7.15
45 | CCCC(C)NCc1cccnc1N1CCN(c2ccccn2)CC1 (centres undefined) | -5.62
46 | Cc1[nH]c(-c2ccccc2)nc1C(=O)N1CCc2[nH]cnc2C1C(=O)O (centres undefined) | -8.84
47 | CCCOC(=O)NCCC1CN(c2cnn(C)c(=O)c2)CCO1 (centres undefined) | -10.5
48 | COCCC1(CO)CCCN(Cc2cc(C(F)(F)F)ccc2F)C1 (centres undefined) | -1.42
49 | O=C(COc1cccc(F)c1)N1C[C@@H](CN2CCCC2)C[C@H](CO)C1 | 0.446
50 | COc1ccc2c(c1)OCC(CNC(=O)c1cc[nH]c1C)C2 (centres undefined) | -19.4
51 | CCNC(=O)[C@@H]1C[C@H](N)CN1C(=O)C1(c2ccc(OC)cc2)CCCC1 | -10.3
52 | CCn1cc(CN2CCC(NS(C)(=O)=O)CC2)cc1C#N | -3.22
53 | O=C(NCCCOC1CCCCC1)C1NCCc2[nH]cnc21 (centres undefined) | -3.08
54 | CO[C@H]1CN(Cc2c(C)ccc3ncccc23)CC[C@H]1N | 2.94

Row | Structure (SMILES) | cytotoxicity at 70.5 h [%]
55 | CCn1cnnc1Cc1nc2c([nH]1)CC(c1ccc(Cl)cc1)CNC2=O (centres undefined) | 6.53
56 | COc1ncc(C(=O)N2CCCC3(C=Cc4ccccc4O3)CC2)cn1 (centres undefined) | 13.5
57 | COc1nc2c(cc1C(=O)N1CCCOC(CN3CCCC3)C1)CCC2 (centres undefined) | -13.7
58 | Cc1ccc(C(=O)N2CCC3(CCC(=O)N(CCCO)C3)CC2)c(O)c1 | -8.79
59 | Cc1cccnc1CCNCC1(O)CCCN(CC2CCCCC2)C1=O (centres undefined) | 35.9
60 | COCc1cc(N2C[C@@H](C)[C@](O)(C3CC3)C2)ncn1 | 0.518
61 | COC1CCCN(CCCc2cn[nH]c2)C1 (centres undefined) | 0.195
62 | COc1ccc(C(=O)N2CC[C@@H](N3CCC(O)CC3)[C@H](O)C2)cc1C | -3.31
63 | Cc1ccoc1C(=O)N1CCC(n2cc(-c3ccsc3)nn2)CC1 | -12.5
64 | CCN(CC)CCn1cnc(-c2ccccc2)c1-c1cnn(CC)c1 | -10.7
65 | CC(=O)N[C@@H]1CN(CC(=O)NCc2ccccc2C)C[C@H]1C(C)C | -6.75
66 | C=C(C)COc1cccc(CNC(CC(C)C)c2ncnn2C)c1 (centres undefined) | -3.16
67 | COc1cccc(CN(C)Cc2[nH]c3ccccc3c2C)c1O | 1.38
68 | Cc1ccc(CN(Cc2ccncc2)C2CCN(C)CC2)s1 | 15.5
69 | CSc1cccc(CNC(=O)[C@H]2CNC[C@@H](C(=O)N3CCOCC3)C2)c1 | -4.8
70 | NC(=O)c1csc(N2CCCC(c3nc4ccccc4[nH]3)C2)n1 (centres undefined) | -2.59
71 | CC(C)(C)N1CC(c2ncc(-c3ccc4c(c3)OCCO4)[nH]2)CC1=O (centres undefined) | -2.24
72 | Cc1nc2c(c(N3CCC4(CCCNC4=O)C3)n1)CCC2 (centres undefined) | -4.16
73 | CC(=O)N1Cc2cnc(C(C)(C)C)nc2C1 | 19.2
74 | Cc1nnc(SCCCNC(=O)c2ccc3c(c2)OCO3)s1 | -9.91
75 | O=C1C[C@H]2CC[C@@H](CN1)N2C(=O)Cc1ccsc1 | -8.54
76 | CN1N=C(C(=O)N2CCCC(CCc3ccccc3)C2)CCC1=O (centres undefined) | -9.61
77 | Cc1ccccc1C(=O)NC[C@@H]1CCN(C(=O)c2cscn2)C[C@H]1O | 18.9
78 | CCCc1ccc(C(=O)N2CCc3c(nc(C)nc3N(C)C)C2)cc1 | -0.957
79 | CCOCC(=O)N1C[C@H]2CC[C@@H]1CN(C(=O)c1ccncc1)C2 | -1.67
